Results: US20160038235A1, “INGENOL MEBUTATE IN COMBINATION WITH LASER THERAPY FOR THE TREATMENT OF HYPE[…] LESIONS” (LEO LABORATORIES LIMITED, priority 2013, published 2016)

Assay: Penetration of ingenol mebutate in static in vitro Franz cell model after fractional Er:YAG laser pre-treatment
Assay type: in vitro ADME, porcine
Set-up: Uptake: unit not given here
Details: for Uptake: 21 h
Protocol: Penetration of Ingenol mebutate was investigated in a static in vitro Franz cell model, using porcine skin. Prior to ingenol mebutate application, the skin was pre-treated with a fractional 2940 Er:YAG laser. Two settings were used based on pulse durations at 125 or 225 μs, and power at 1.3 or 1.7 W, delivering total energies per laser channel at 11 or 128 mJ, respectively. The settings were investigated at 1, 5 and 10% densities. The shape and depth of the micropores were evaluated in a dissecting microscope. After 21 h in the Franz cells, stratum corneum was tape stripped and liquid chromatography-mass spectrometry (LC-MS) was used to analyze IngMeb concentrations in stratum corneum, skin and receptor fluid.

Q: What does the source list for `C/C=C(/C)C(=O)O[C@H]1C(C)=C[C@]23C(=O)[C@@H](C=C(CO)[C@@H](O)[C@]12O)[C@H]1[C@@H](C[C@H]3C)C1(C)C` [ingenol mebutate]?
A: Uptake (1—No Laser, Dermis): 508; Uptake (1—No Laser, Epidermis): 606; Uptake (1—No Laser, Receiver): 0; Uptake (1—No Laser, SC): 708; Enhancement Factor (1—No Laser, Viable skin (reference)): 1; Uptake (1—No Laser, Viable skin): 1114; Uptake (2—Superficial 1% (approx. 50 μm micropores), Viable skin): 1340; Uptake (2—Superficial 1%, Dermis): 843; Uptake (2—Superficial 1%, Epidermis): 558; Uptake (2—Superficial 1%, Receiver): 122; Uptake (2—Superficial 1%, SC): 603; Enhancement Factor (2—Superficial 1%, Viable skin, vs No laser): 1.20; Uptake (3—Superficial 5%, Dermis): 1584; Uptake (3—Superficial 5%, Epidermis): 568; Uptake (3—Superficial 5%, Receiver): 408; Uptake (3—Superficial 5%, SC): 135; Uptake (3—Superficial 5%, Viable skin): 2152; Enhancement Factor (3—Superficial 5%, Viable skin, vs No laser): 1.93; Uptake (4—Superficial 10%, Dermis): 1801; Uptake (4—Superficial 10%, Epidermis): 388; Uptake (4—Superficial 10%, Receiver): 547; Uptake (4—Superficial 10%, SC): 59; Uptake (4—Superficial 10%, Viable skin): 2189; Enhancement Factor (4—Superficial 10%, Viable skin, vs No laser): 1.97; Uptake (5—Mid-Dermal-1% (approx. 500 μm micropores), Viable skin): 1510; Uptake (5—Mid-Dermal-1%, Dermis): 1076; Uptake (5—Mid-Dermal-1%, Epidermis): 366; Uptake (5—Mid-Dermal-1%, Receiver): 304; Uptake (5—Mid-Dermal-1%, SC): 369; Enhancement Factor (5—Mid-Dermal-1%, Viable skin, vs No laser): 1.35; Uptake (6—Mid-Dermal 5%, Dermis): 1744; Uptake (6—Mid-Dermal 5%, Epidermis): 386; Uptake (6—Mid-Dermal 5%, Receiver): 677; Uptake (6—Mid-Dermal 5%, SC): 127; Uptake (6—Mid-Dermal 5%, Viable skin): 2126; Enhancement Factor (6—Mid-Dermal 5%, Viable skin, vs No laser): 1.91; Uptake (7—Mid-Dermal 10%, Dermis): 1986; Uptake (7—Mid-Dermal 10%, Epidermis): 260; Uptake (7—Mid-Dermal 10%, Receiver): 622; Uptake (7—Mid-Dermal 10%, SC): 9; Uptake (7—Mid-Dermal 10%, Viable skin): 2224; Enhancement Factor (7—Mid-Dermal 10%, Viable skin, vs No laser): 2.00; accumulation in the epidermis, laser compared with no laser pre-treatment (10% density at 50 μm micropores, all densities at 500 μm micropores): decreased ingenol mebutate in the epidermis; accumulation in stratum corneum (SC), laser pre-treatment compared with no laser pre-treatment (50 μm and 500 μm micropores, decreasing with increasing density): less ingenol mebutate was accumulated; increase in ingenol mebutate in the dermis with laser pre-treatment compared with no laser pre-treatment (density dependent (1-10%)): 1.7-3.9 fold; dermis uptake, 10% density compared with 5%, and 500 μm compared with 50 μm micropores (laser pre-treatment): no added benefit was observed; improved uptake in the epidermis relative to uptake without use of the laser (maximum): ≤ 4 times; delivery of ingenol mebutate to dermis, increase following laser pre-treatment compared to no laser pre-treatment (maximum increase): ≤ 4 fold
